Measurements as given in the NIST ThermoML archive (doi:10.1016/j.fluid.2016.02.011).
Numbers after ± are expanded uncertainties.

Assay: refractive index (Na D-line) (dimensionless); xn = mol fraction of the nth substance listed
Details: 100 kPa, Liquid, minimum deviations angle

Brc1ccccc1 [bromobenzene] + CCCCCC[n+]1ccn(C)c1.O=S(=O)([N-]S(=O)(=O)C(F)(F)F)C(F)(F)F
Details | refractive index
282.96 K, x2 = 0.126 | 1.5213 ± 0.0006
282.97 K, x2 = 0.014 | 1.5558 ± 0.0013
282.97 K, x2 = 0.099 | 1.5287 ± 0.0013
283 K, x2 = 0 | 1.5612 ± 0.0003
283 K, x2 = 0.012 | 1.5566 ± 0.0008
283.05 K, x2 = 0.203 | 1.5043 ± 0.0005
284.39 K, x2 = 0.098 | 1.5279 ± 0.0007
284.4 K, x2 = 0 | 1.5605 ± 0.0003
284.53 K, x2 = 0.016 | 1.5545 ± 0.0013
284.53 K, x2 = 0.094 | 1.5291 ± 0.0013
284.67 K, x2 = 0.012 | 1.5558 ± 0.0007
284.89 K, x2 = 0.126 | 1.5204 ± 0.0006
285.06 K, x2 = 0.203 | 1.5035 ± 0.0005
285.53 K, x2 = 0.098 | 1.5273 ± 0.0007
285.73 K, x2 = 0.017 | 1.5534 ± 0.0013
285.73 K, x2 = 0.091 | 1.5294 ± 0.0013
285.75 K, x2 = 0 | 1.5598 ± 0.0003
286.57 K, x2 = 0.012 | 1.5548 ± 0.0007
286.96 K, x2 = 0 | 1.5591 ± 0.0003
286.98 K, x2 = 0.126 | 1.5195 ± 0.0006
287.01 K, x2 = 0.203 | 1.5027 ± 0.0005
287.53 K, x2 = 0.019 | 1.5516 ± 0.0013
287.53 K, x2 = 0.086 | 1.53 ± 0.0013
287.59 K, x2 = 0.098 | 1.5264 ± 0.0007
287.98 K, x2 = 0 | 1.5585 ± 0.0003
288.27 K, x2 = 0.012 | 1.5539 ± 0.0007
288.42 K, x2 = 0.021 | 1.5506 ± 0.0013
288.42 K, x2 = 0.083 | 1.5304 ± 0.0013
288.67 K, x2 = 0.085 | 1.5295 ± 0.0007
288.99 K, x2 = 0 | 1.558 ± 0.0003
289.12 K, x2 = 0.126 | 1.5186 ± 0.0006
289.13 K, x2 = 0.022 | 1.5497 ± 0.0013
289.13 K, x2 = 0.08 | 1.5307 ± 0.0013
289.18 K, x2 = 0.203 | 1.5018 ± 0.0005
289.79 K, x2 = 0.085 | 1.529 ± 0.0006
289.81 K, x2 = 0.098 | 1.5254 ± 0.0006
289.82 K, x2 = 0.024 | 1.5487 ± 0.0014
289.82 K, x2 = 0.077 | 1.5313 ± 0.0013
290.11 K, x2 = 0 | 1.5574 ± 0.0003
290.23 K, x2 = 0.012 | 1.5529 ± 0.0008
290.33 K, x2 = 0.026 | 1.5478 ± 0.0013
290.33 K, x2 = 0.074 | 1.5318 ± 0.0014
290.81 K, x2 = 0.085 | 1.5286 ± 0.0006
290.82 K, x2 = 0.027 | 1.547 ± 0.0013
290.82 K, x2 = 0.072 | 1.5324 ± 0.0013
290.87 K, x2 = 0.026 | 1.5473 ± 0.0007
291.09 K, x2 = 0.203 | 1.501 ± 0.0005
291.14 K, x2 = 0.126 | 1.5177 ± 0.0005
291.16 K, x2 = 0.029 | 1.5462 ± 0.0013
291.16 K, x2 = 0.069 | 1.533 ± 0.0013
291.22 K, x2 = 0 | 1.5568 ± 0.0003
291.34 K, x2 = 0.012 | 1.5524 ± 0.0007
291.44 K, x2 = 0.03 | 1.5456 ± 0.0014
291.44 K, x2 = 0.067 | 1.5336 ± 0.0013
291.49 K, x2 = 0.075 | 1.5311 ± 0.0007
291.54 K, x2 = 0.031 | 1.5453 ± 0.0014
291.54 K, x2 = 0.066 | 1.5338 ± 0.0013
291.64 K, x2 = 0.031 | 1.5451 ± 0.0013
291.64 K, x2 = 0.065 | 1.5341 ± 0.0013
291.71 K, x2 = 0.098 | 1.5245 ± 0.0007
291.74 K, x2 = 0.032 | 1.5448 ± 0.0016
291.74 K, x2 = 0.064 | 1.5343 ± 0.0013
291.83 K, x2 = 0.033 | 1.5445 ± 0.0011
291.83 K, x2 = 0.063 | 1.5346 ± 0.0006
291.91 K, x2 = 0.033 | 1.5442 ± 0.0007
291.91 K, x2 = 0.062 | 1.5349 ± 0.0013
291.98 K, x2 = 0.034 | 1.5439 ± 0.002
291.98 K, x2 = 0.061 | 1.5351 ± 0.0015
292.03 K, x2 = 0.026 | 1.5467 ± 0.0007
292.04 K, x2 = 0.035 | 1.5436 ± 0.0024
292.04 K, x2 = 0.06 | 1.5354 ± 0.0015
292.08 K, x2 = 0.036 | 1.5433 ± 0.0012
292.08 K, x2 = 0.059 | 1.5356 ± 0.0009
292.14 K, x2 = 0.085 | 1.5279 ± 0.0006
292.15 K, x2 = 0.037 | 1.5428 ± 0.0011
292.15 K, x2 = 0.058 | 1.536 ± 0.0009
292.21 K, x2 = 0.038 | 1.5424 ± 0.0012
292.21 K, x2 = 0.056 | 1.5365 ± 0.0018
292.21 K, x2 = 0.075 | 1.5307 ± 0.0006
292.21 K, x2 = 0.126 | 1.5172 ± 0.0005
292.22 K, x2 = 0.203 | 1.5005 ± 0.0005
292.24 K, x2 = 0.039 | 1.5421 ± 0.0014
292.24 K, x2 = 0.055 | 1.5368 ± 0.0013
292.25 K, x2 = 0.039 | 1.5419 ± 0.001
292.25 K, x2 = 0.055 | 1.5369 ± 0.0011
292.26 K, x2 = 0.04 | 1.5416 ± 0.0013
292.26 K, x2 = 0.054 | 1.5371 ± 0.0014
292.27 K, x2 = 0.041 | 1.5414 ± 0.0014
292.27 K, x2 = 0.053 | 1.5373 ± 0.0013
292.29 K, x2 = 0.042 | 1.541 ± 0.0014
292.29 K, x2 = 0.052 | 1.5378 ± 0.0013
292.3 K, x2 = 0.012 | 1.5518 ± 0.0008
292.3 K, x2 = 0.043 | 1.5407 ± 0.0013
292.3 K, x2 = 0.051 | 1.538 ± 0.0013
292.32 K, x2 = 0 | 1.5563 ± 0.0003
293.01 K, x2 = 0.085 | 1.5276 ± 0.0007
293.1 K, x2 = 0.026 | 1.5461 ± 0.0007
293.22 K, x2 = 0.126 | 1.5167 ± 0.0005
293.22 K, x2 = 0.203 | 1.5001 ± 0.0005
293.32 K, x2 = 0 | 1.5557 ± 0.0003
293.35 K, x2 = 0.041 | 1.5407 ± 0.0008
293.35 K, x2 = 0.06 | 1.5348 ± 0.0006
293.39 K, x2 = 0.012 | 1.5513 ± 0.0008
293.5 K, x2 = 0.075 | 1.5301 ± 0.0006
293.74 K, x2 = 0.098 | 1.5236 ± 0.0007
293.93 K, x2 = 0.085 | 1.5271 ± 0.0007
294.22 K, x2 = 0.026 | 1.5456 ± 0.0007
294.45 K, x2 = 0.041 | 1.5401 ± 0.0007
294.49 K, x2 = 0.06 | 1.5343 ± 0.0007
294.54 K, x2 = 0.075 | 1.5296 ± 0.0007
295.1 K, x2 = 0.085 | 1.5266 ± 0.0006
295.1 K, x2 = 0.098 | 1.523 ± 0.0006
295.32 K, x2 = 0.026 | 1.545 ± 0.0008
295.66 K, x2 = 0.06 | 1.5337 ± 0.0007
295.82 K, x2 = 0.041 | 1.5394 ± 0.0007
295.84 K, x2 = 0.075 | 1.529 ± 0.0007
296.86 K, x2 = 0.06 | 1.5331 ± 0.0013
297.11 K, x2 = 0.041 | 1.5388 ± 0.0007
297.16 K, x2 = 0.075 | 1.5284 ± 0.0007
297.94 K, x2 = 0.06 | 1.5325 ± 0.0007
298.49 K, x2 = 0.041 | 1.5381 ± 0.0008
298.64 K, x2 = 0.026 | 1.5433 ± 0.0007
298.7 K, x2 = 0.075 | 1.5277 ± 0.0007
299.03 K, x2 = 0.06 | 1.532 ± 0.0007
299.63 K, x2 = 0.041 | 1.5375 ± 0.0007
299.98 K, x2 = 0.06 | 1.5315 ± 0.0007
300.84 K, x2 = 0.041 | 1.5369 ± 0.0008
